Measurements published in patent publication US6855505B2, “Method for quantifying TGF-β” (Renovo Limited, priority 1998, dated 2005).

Experiments:
[1] = test system: active TGF-β; test: Active TGF-β in wound cryosections, modified PAI/L assay; assay type: in vivo, rat; conditions: for level of active TGF-β in treated wounds compared with PBS controls: M6P 100 mM, 100 μl/wound/day; for level of active TGF-β in treated wounds compared to controls: 100 μM kistrin
Source text: (§1) Adult male Sprague-Dawley rats (Charles River UK Ltd, Kent, UK) weighing 225-250 g were anaesthetised by inhalation of halothane, nitrous oxide, and oxygen. The back of the rats was shaved, and four full-thickness linear incisions of 1 cm length, including the panniculus carnosus, were made on the back of the animals using a scalpel as described in Shah et al., “Control of scarring in adult wounds by neutralising antibody to transforming growth factor β, Lancet. 339: 213-214, 1992. The wounds were left unsutured to heal by secondary intention. The animals were allowed to recover, housed separately, and fed ad libitum until the wounds were harvested. The animals were killed by chloroform overdose at 1 hour, 6 hour, or 1, 2, 3, 4, 5, 7, 10 and 14 days post-wounding. The wounds were harvested and processed as described below. All animal experiments were carried out under appropriate licences according to UK Home Office regulations.
(§2) The wound area was swabbed with 70% ethanol. The wounds were carefully dissected from surrounding tissue and subsequently embedded in 8% sterile methyl cellulose (Sigma, Dorset, UK) and snap frozen in liquid nitrogen. Four wounds from each animal were embedded in one block of methyl cellulose. Four tissue samples of equivalent size representing surrounding tissue adjacent to the wound were also excised and processed as described above. Normal skin from the back of non-wounded rats was used as a control. The embedded tissue samples were stored at −80° C. for a maximum of 3 months. Thick cryosections (20 μm) were cut and placed on sterilised 13-mm round coverslips and analysed in duplicate. The coverslips, each carrying 4 cryosections of the wound, were placed into a 24-well cell culture plate and temporarily stored at −20° C. until transferred onto mink lung epithelial cells (MLECs).
Referring to FIG. 1, the original PAI/L assay for the quantification of TGF-β in liquid samples was modified in order to measure active/latent TGF-β levels in a tissue section of a wound site to provide an indication of the levels at the wound site in vivo. As shown in FIG. 1A MLECs (10) were plated for 4 h into 24-well plates. one well (12) being represented in FIG. 1A (3×10^5/ml, 500 μl/well) in complete DMEM and incubated for 4 hours at 37° C. Then, serum-containing medium was replaced with 500 μl of DMEM containing 0.1% pyrogen-poor BSA (from Pierce, Rockford, Ill., USA), aprotinin (1 μg/ml) (from Sigma, Dorset, UK) penicillin (100 U/ml) and streptomyciln (100 μg/ml), designated DMEM-BSA medium (14). The coverslips (16) carrying cryosections (18) were placed upside down onto the MLECs (10) in the 24-well plates.
These serial dilutions were added to the MLECs (10) together with methyl-cellulose coated coverslips (16).
Both samples and TGF-β standards were incubated with the MLECs (10) overnight at 37° C. MLECs (10) were then washed with phosphate buffered saline (PBS) and lysed with 200 μl of luciferase cell lysis buffer (from Analytical Luminescence Laboratory, Ann Arbor, USA) for 20 minutes at room temperature. Forty-five microliters of the lysates was transferred in triplicate to a Microlite 96-well plate (Dynatech Laboratories Inc. Chantilly, Va., USA). Luciferase activity in the lysates was determined using an MLX Microtiter Plate Luminometer (Dynex Technologies, Chantilly, Va., USA).
(§3) 20 animals each received 4 wounds which were subsequently treated with M6P (100 mM, 100 μl/wound/day). Animals were killed at 1 and 6 hours and 1, 3, 5, 7, 10 and 14 days post wounding. The wounds were dissected and embedded in methyl cellulose, then snap frozen. The tissue samples were subsequently prepared for use in the modified PAI-1/L assay.
Briefly, rat incisional wounds were treated with 1 mM monodansylcadaverine (MDC), a potent inhibitor of Transglutaminase activity. The wounds were prepared and assayed as described previously. […]

[2] = test system: total TGF-β; test: Total TGF-β (active plus latent) in heat-activated wound cryosections, PAI/L assay; assay type: in vivo, rat; conditions: for level of total TGF-β in treated wounds compared with control wounds: M6P 100 mM, 100 μl/wound/day; for level of total TGF-β in treated wounds compared to controls: 100 μM kistrin
Source text: as §1, §2
In order to measure total TGF-β (active plus latent) in the wound tissue samples, the coverslips carrying the cryosections were submerged in 500 μl of DMEM-BSA medium in a sterile glass embryo dish (BDH, Merck, Leics., UK) and incubated for 20 minutes at 80° C. in order to heat activate latent TGF-β. Following heat activation, the coverslips were transferred, together with the medium, onto MLECs for TGF-β quantification in the PAI/L assay according to Example 1. Similar results were obtained in three separate experiments.
as §3
(§4) Briefly, rat incisional wounds were treated with 100 μM kistrin, then prepared and assayed as described previously.

[3] = test system: rat incisional wounds; test: Scarring in rat incisional wound model; assay type: in vivo
Source text: as §1
Briefly, rat incisional wounds were treated with 1 mM monodansylcadaverine (MDC), a potent inhibitor of Transglutaminase activity. The wounds were prepared and assayed as described previously.
as §4

[4] = test system: rat incisional wounds; conditions: application into rat dermal wounds; earlier studies; cited from earlier work
[5] = test system: latent TGF-β; test: Latent TGF-β in wound sections; assay type: in vivo, rat; conditions: 100 μM kistrin; 1 hour post wounding
Description: as §4

[6] = rat incisional wounds treated with 1 mM MDC

With `O=C[C@@H](O)[C@@H](O)[C@H](O)[C@H](O)COP(=O)(O)O` [M6P, mannose-6-phosphate] the “level of active TGF-β in treated wounds compared with PBS controls” value (“level … compared with PBS controls” for short) ([1]; 1 hour post wounding) was “less”, the “level … compared with PBS controls” value ([1]; 6 hours post wounding) was “less” and the “level … compared with PBS controls” value ([1]; 10 days post wounding) was “more active TGF-β than controls”. The “level … compared with PBS controls” value ([1]; after 6 hours until 10 days post wounding) was “comparable”, the “reduction of levels of active TGF-β in vivo (overall conclusion)” value ([1]; M6P treated rat wounds, early stages of wound repair) was “effective in reducing the levels of active TGF-β in vivo” and the “level of total TGF-β in treated wounds compared with control wounds” value (from here on “level … compared with control wounds”) ([2]; 6 hours post wounding) was “higher than controls”. For the same compound, the “level … compared with control wounds” value ([2]; 5 days post wounding) was “higher than controls”, the “level … compared with control wounds” value ([2]; 7 days post wounding) was “less than controls” and the “level … compared with control wounds” value ([2]; 10 days post wounding) was “higher than controls”. The scarring ([3]; local administration of M6P, rat incisional wound model, previously demonstrated by the applicant) was “significantly reduces scarring” and the quality of scarring [4] was “improve the quality of scarring”.

For `CN(C)c1cccc2c(S(=O)(=O)NCCCCCN)cccc12` [MDC, monodansylcadaverine], the “early TGF-β levels” value [1, 6] was “reduces early TGF-β levels”, the “TGF-β activation in vivo” value ([1]; rat incisional wounds treated with 1 mM MDC, FIG. 8) was “inhibits TGF-β activation in vivo” and the scarring [3, 6] was “improves scarring”.

In the case of kistrin, the “level of active TGF-β in treated wounds compared to controls” value ([1]; 1 hour post wounding) was “increased”, the “level of active TGF-β in treated wounds compared to controls” value ([1]; 5 days post wounding) was “no differences” and the “level of total TGF-β in treated wounds compared to controls” value ([2]; 1 hour post wounding) was “increased”. The “level of total TGF-β in treated wounds compared to controls” value ([2]; 5 days post wounding) was “no differences”, the “amount of latent TGF-β compared to controls” value [5] was “no difference” and the antiscarring effect ([3]; kistrin treated rat incisional wounds) was “no antiscarring effect”.
